These are literature values, as cited in patent publication US20190054044A1, “ORAL DOSAGE FORM OF BOTH CLOMIPHENE ISOMERS AND METHOD OF USING SAME TO TREAT SECONDARY HYPOGONADISM AND MINIMIZE DRUG SIDE EFFECTS IN MEN” (ASPEN PARK PHARMACEUTICALS, INC., priority 2016, published 2019).

Each structure is given as a SMILES string. Where a name gives a salt, the structure may show the parent alone.

For data set [1] the following is noted: baboons.
The conditions of data set [2]: commercial doses (25 mg PO daily or 50 mg PO every other day).
For data set [3] the following is noted: men.

With `CCN(CC)CCOc1ccc(/C(=C(\Cl)c2ccccc2)c2ccccc2)cc1` (single isomer, unassigned) [cis-isomer of clomiphene], in data set [1] (range of doses tested), the LH secretion result is “inhibited LH secretion” and the peripheral testosterone entry is reported as “reduced peripheral testosterone towards castrate blood levels”.
Consider `CCN(CC)CCOc1ccc(/C(=C(/Cl)c2ccccc2)c2ccccc2)cc1` [ANDROXAL, trans clomiphene citrate], for which, for the setting “clinical study”, the “changes in visual acuity noted as an adverse event” value is on record as 0.2%, the “fatigue (side effect incidence)” value is 2.8%, the “headache (side effect incidence)” value is 6.6% and the “muscle spasms (side effect incidence)” value is 4%. For the same molecule, the “transient blurred vision (side effect incidence)” value (clinical study) was 1.4%. For the same molecule, the “upper respiratory tract infections (side effect incidence)” value (clinical study, conducted during the cold, flu and allergy season) is 11.6%. Besides, the “number of skeletal fractures” value (treated versus placebo subjects, clinical studies) is “Increase in number of skeletal fractures”.
With `CCN(CC)CCOc1ccc(/C(=C(/Cl)c2ccccc2)c2ccccc2)cc1` [ENCLOMID], in data set [1], the total serum testosterone result is “significantly and statistically raised total serum testosterone”.
As for `CCN(CC)CCOc1ccc(C(=C(Cl)c2ccccc2)c2ccccc2)cc1` [CLOMID, clomiphene citrate], in data set [2], the bone mineral density result is recorded as “decrease bone mineral density” and the risk of fractures entry is listed as “increase the risk of fractures”. Also, the “safety for long-term management of hypogonadism” value in data set [3] is recorded as “safe”. For the same molecule, in data set [3] (long-term), the T levels result is “raised T levels substantially” and the osteopenia/osteoporosis entry is given as “improving osteopenia/osteoporosis”.
